This is an account of results in patent publication US7462622B2, “Pyrrolo[2, 3-d] pyrimidine derivatives as corticotropin releasing factor antagonists” (Glaxo Group Limited, priority 2001, dated 2008).

This experiment has as its system recombinant human CRF receptors. Kind of experiment: CRF receptors-binding assay by scintillation proximity (SPA), displacement of 125I-oCRF (CRF1) / 125I-Sauvagine (CRF2). The settings on record: qualitative statement; assay not specified. As for the experimental part:
The CRF receptors-binding assay was performed by using the homogeneous technique of scintillation proximity (SPA). The ligand binds to recombinant membrane preparation expressing the CRF receptors which in turn bind to wheat germ agglutinin coated SPA beads. In the Experimental Part will be disclosed the details of the experiments.
CRF binding affinity has been determined in vitro by the compounds' ability to displace ^125I-oCRF and ^125I-Sauvagine for CRF1 and CRF2 SPA, respectively, from recombinant human CRF receptors expressed in Chinese Hamster Ovary (CHO) cell membranes. For membrane preparation, CHO cells from confluent T-flasks were collected in SPA buffer (HEPES/KOH 50 mM, EDTA 2 mM; MgCl2 10 mM, pH 7.4.) in 50 mL centrifuge tubes, homogenized with a Polytron and centrifuged (50,000 g for 5 min at 4° C.: Beckman centrifuge with JA20 rotor). The pellet was resuspended, homogenized and centrifuged as before.
The SPA experiment has been carried out in Optiplate by the addition of 100 μL the reagent mixture to 1 μL of compound dilution (100% DMSO solution) per well. […]
The plate was incubated overnight (>18 hrs) at room temperature and read with the Packard Topcount with a WGA-SPA ^125I counting protocol.
Background: Scintillation proximity formats need no separation of bound from free tracer.

Turning to `CCC(COC)Oc1nc(C)nc2c1CCN2c1ccc(C(F)(F)F)cc1C(F)(F)F` (stereo not shown) [Compound 1-12, 7-(2,4-bis-trifluoromethyl-phenyl)-4-(1-methoxymethyl-propoxy)-2-methyl-6,7-dihydro-5H-pyrrolo[2,3-d]pyrimidine], the activity result is listed as “good activity”.
